Experiments:
[1] = tested on: Spinal reflex (flexor reflex); assay: Spinal reflex (flexor reflex) inhibitory action, evoked electromyogram in anesthetized rats; format: in vivo, male rats; Wistar strain; details: intravenous (i.v.) administration of 5 mg/kg in physiological saline; average amplitude over 30 minutes after vs 10 minutes before administration; rats anesthetized with urethane and α-chloralose
Experimental: 1. Spinal reflex (flexor reflex) inhibitory action
Animals (male rats; Wistar strain) were anesthetized with urethane and α-chloralose, and their tibial nerve was dissected, and stimulated (0.1 msec, 0.1 Hz, ultra-maximum stimulation) by the stimulator (Model MSE-3; Nippon Koden). […] The amplitude of this evoked electromyogram was recorded on a pen recorder through a peak holder.The activity of the compounds was expressed by flexor reflex inhibition rate. That is, the flexor reflex inhibition rate was calculated from the following equation (A): [formula] wherein A is the average amplitude of the electromyogram in the period of 10 minuts before the administration of the test compound, and B is the average amplitude of the electromyogram in the period of 30 minutes after the intravenous (i.v.) administration of 5 mg/kg of the test compound dissolved in a physiological saline solution.

[2] = Acute toxicity, LD50 in mice intravenously; details: mouse, in vivo, iv, read-out: LD₅₀ (Mice; i.v.)
Experimental: LD₅₀ (mg/kg) of the each test compound given to mice intravenously was determined.

[3] = tested on: ischemic decerebrate rigidity; assay: Action to ischemic decerebrate rigidity of rat (Fukuda et al method); format: in vivo, male Wistar rat; details: intravenous administration 3.5 mg/kg; average forepaw tension for 10 minutes at peak period after vs before administration
Source text: 2. Action to ischemic decerebrate rigidity of rat
The effects on the ischemic decerebrate rigidity were investigated by using Fukuda et al method (H. Fukuda, T. Ito, S. Hashimoto and Y. Kudo: Japan. J. Pharmacol., 24, 810 (1974)). The rigidity is due to hyperactivity of α-motorneurones. The rigid animals provide a good experimental model for some type of spasticity in man.
A tracheal cannula was inserted in each of male Wistar rat under ether anesthesia. Both of common carotid arteries were ligated and the basilar artery was cauterized with a bipolar coagulator to block the blood circulation and to prepare a rigidity sample. The rigidity was recorded as described below. A rat was fixed on its back on a fixing stand and its forepaws were allowed to grisp an end of a celluloid plate provided with strain gauges on both sides thereof. A change of the resistance observed when the celluloid plate was forced up by the rigidity of the forepaws was recorded as a tension through a bridge circuit on a self-balancing recorder. A rigidity inhibition rate was calculated according to the following equation: [formula] when C represents an average tension (g) for 10 minutes at peak period before the administration of a test compound and D represents an average tension (g) for 10 minutes at peak period recorded after the intravenous administration 3.5 mg/kg of a test compound.

Row | SMILES | Inhibition rate (%) (flexor reflex inhibition rate) [1] | LD50 [2] | Inhibition rate (%) (rigidity inhibition rate) [3]
1 | CCC(CN1CCCC1)C(=O)c1ccc(OC)c2c1CCCC2 (stereo not drawn) [2-11, 1-(4-Methoxy-5,6,7,8-tetrahydro-1-naphthyl)-2-ethyl-3-pyrrolidino-1-propanone] | 50.0% | 35.4 mg/kg | 53.9%
2 | CC(CN1CCCC1)C(=O)c1ccc(C(F)(F)F)cc1 (stereo not drawn) [4-1, 1-(4-Trifluoromethylphenyl)-2-methyl-3-pyrrolidino-1-propanone] | 40.3% | 61.1 mg/kg | 23.6%
3 | COc1ccc(C(=O)C(C)CN2CCCC2)c2c1CCCC2 (stereo not drawn) [2-1, 1-(4-Methoxy-5,6,7,8-tetrahydro-1-naphthyl)-2-methyl-3-pyrrolidino-1-propanone] | 53.6% | 38.1 mg/kg | 46.1%

Source: patent EP0200942B1, “New derivatives of an aminoketone” (NIPPON KAYAKU KABUSHIKI KAISHA, priority 1985, dated 1986)
